# In patent US8188135B2, “Compounds as cannabinoid receptor ligands” (priority 2008, dated 2012):
# Legend:
# Rat CB1 = target: T1, Rat CB1 (Rattus norvegicus, UniProt P20272); assay: rat CB1 cyclase functional assay (HitHunter cAMP); assay type: cell-based; settings: Rat CB1 cyclase (EC50, nM), HEK cells, forskolin 37 μM
# T1 construct: expressed in transfected cells; host or cells: HEK
# Method in brief: (§1)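 HEK cells expressing rat CB1 or CB2, 10,000 cells/well, incubated 20 min at 37° C with test ligands plus forskolin (37 μM for CB1, 18 μM for CB2) in DPBS with 0.01% BSA. cAMP read by enzyme-complementation luminescence after lysis; EC50 from sigmoidal dose-response fit.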
# human CB2 receptors = target: T2, human CB2 receptors (Homo sapiens, UniProt P34972); assay: human CB2 radioligand binding assay ([3H]CP 55,940 competition); settings: human CB2 (Ki, nM), HEK293 membranes, 0.5 nM [3H]CP 55,940
# T2 construct: expressed in transfected cells; host or cells: HEK293
# Method in brief: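 Membranes from HEK293 cells stably expressing human CB2 (5 μg protein/well) competed against 0.5 nM [3H]CP 55,940 with five concentrations of test ligand (0.01 nM to 10 μM), pH 7.4 Tris buffer with BSA, 90 min at 30 °C. Filtration and scintillation counting; nonspecific binding with 10 μM unlabeled CP 55,940.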
# [1] = pharmacokinetic studies in rats; settings: male, Sprague-Dawley, rat, in vivo; for clearance / half-life: iv, 3 micromole/kg; for bioavailability: po, 10 micromole/kg
# Experimental: Male Sprague-Dawley rats, weighing 250-400 g, were obtained from Charles Rivers Laboratories. Pharmacokinetic studies were conducted in three groups of rats; each group contained three animals. All groups were dosed with a solution formulation. The first group of three rats received an intravenous dose, administered under isoflurane anesthetic. The second group received an intraperitoneal dose and the third group received an oral dose, administered by gavage. Sequential blood samples were obtained from a tail vein of each animal for 8-24 hours after dosing. Plasma was separated by centrifugation and stored frozen until analysis.
# Half life […] and plasma clearance values are based on intravenous administration (3 micromole/kg).
# Half life (t1/2) and plasma clearance values are based on intravenous administration (3 micromole/kg).
# rat CB2 [2] = target: T3, rat CB2 (Rattus norvegicus, UniProt Q9QZN9); assay: rat CB2 cyclase functional assay (HitHunter cAMP); assay type: cell-based; design: expressed in transfected cells; host or cells: HEK; settings: rat CB2 cyclase (EC50, nM), HEK cells, forskolin 18 μM
# T3 sequence (Q9QZN9 1-360): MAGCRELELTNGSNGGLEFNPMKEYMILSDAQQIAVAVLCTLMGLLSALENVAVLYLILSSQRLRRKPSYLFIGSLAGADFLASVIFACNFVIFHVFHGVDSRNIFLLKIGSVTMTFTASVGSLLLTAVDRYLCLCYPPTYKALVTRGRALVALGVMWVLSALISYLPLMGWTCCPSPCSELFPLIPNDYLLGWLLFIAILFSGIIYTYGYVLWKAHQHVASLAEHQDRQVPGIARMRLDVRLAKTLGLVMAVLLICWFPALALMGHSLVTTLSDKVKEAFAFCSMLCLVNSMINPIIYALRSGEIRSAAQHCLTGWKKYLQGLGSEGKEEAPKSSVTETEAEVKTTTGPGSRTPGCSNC
# Method in brief: as §1
# rat CB2 [3] = target: T3, rat CB2; assay: rat CB2 radioligand binding assay ([3H]CP 55,940 competition); design: expressed in transfected cells; host or cells: HEK293; settings: rat CB2 (Ki, nM), HEK293 membranes, 0.5 nM [3H]CP 55,940
# Method in brief: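 Membranes (20 μg protein/well) from HEK293 cells stably expressing the receptor were incubated 45 min at 30 °C with 0.5 nM [3H]CP 55,940 and five concentrations of test compound (0.01 nM–10 μM) in Tris/EDTA/MgCl2/BSA buffer, pH 7.4. Bound ligand was measured by GF/C filtration and scintillation counting; 10 μM CP 55,940 defined nonspecific binding.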
# T2 sequence (P34972 whole entry): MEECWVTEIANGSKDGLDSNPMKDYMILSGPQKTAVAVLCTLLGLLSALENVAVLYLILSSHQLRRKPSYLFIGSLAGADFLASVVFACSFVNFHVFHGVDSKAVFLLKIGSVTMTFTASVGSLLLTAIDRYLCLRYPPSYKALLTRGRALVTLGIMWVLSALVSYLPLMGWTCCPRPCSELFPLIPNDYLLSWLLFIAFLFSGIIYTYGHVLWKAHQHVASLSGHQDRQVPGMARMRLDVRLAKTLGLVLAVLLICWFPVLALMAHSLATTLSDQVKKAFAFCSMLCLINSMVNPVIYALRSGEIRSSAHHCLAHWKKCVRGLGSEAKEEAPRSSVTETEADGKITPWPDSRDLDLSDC
# T1 sequence (P20272 whole entry): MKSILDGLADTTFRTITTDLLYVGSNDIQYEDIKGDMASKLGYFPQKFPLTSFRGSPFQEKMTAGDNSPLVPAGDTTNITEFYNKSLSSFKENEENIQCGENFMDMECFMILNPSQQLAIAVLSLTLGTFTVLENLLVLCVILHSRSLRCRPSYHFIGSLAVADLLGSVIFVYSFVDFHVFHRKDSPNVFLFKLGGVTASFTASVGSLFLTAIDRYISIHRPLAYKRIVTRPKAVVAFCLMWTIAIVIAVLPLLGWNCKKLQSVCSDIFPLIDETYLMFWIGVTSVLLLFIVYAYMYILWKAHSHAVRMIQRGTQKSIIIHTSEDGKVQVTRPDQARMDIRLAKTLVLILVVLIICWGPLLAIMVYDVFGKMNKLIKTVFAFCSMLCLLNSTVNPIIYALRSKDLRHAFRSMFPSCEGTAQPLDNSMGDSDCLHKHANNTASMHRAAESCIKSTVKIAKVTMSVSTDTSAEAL
Structure (SMILES),EC50 (Rat CB1),Ki (human CB2 receptors),clearance [1],half-life [1],bioavailability [1],EC50 (rat CB2 [2]),Ki (rat CB2 [3])
"Cn1c(C(C)(C)C)c/c(=N\C(=O)c2cc(C(F)(F)F)ccc2OCC(C)(C)O)n1C[C@H]1CCCO1 [Example 5, N-{(3E)-5-tert-butyl-1-methyl-2-[(2R)-tetrahydrofuran-2-ylmethyl]-1,2-dihydro-3H-pyrazol-3-ylidene}-2-(2-hydroxy-2-methylpropoxy)-5-(trifluoromethyl)benzamide]",7690 nM,10 nM,18.3 mL/min/kg,2.1 h,37%,0.22 nM,5.5 nM
"Cn1c(C(C)(C)C)c/c(=N\C(=O)c2cc(C(F)(F)F)ccc2OCCC(C)(C)O)n1C[C@H]1CCCO1 [Example 20, N-{(3E)-5-tert-butyl-1-methyl-2-[(2R)-tetrahydrofuran-2-ylmethyl]-1,2-dihydro-3H-pyrazol-3-ylidene}-2-(3-hydroxy-3-methylbutoxy)-5-(trifluoromethyl)benzamide]",6850 nM,35 nM,13.3 mL/min/kg,3.9 h,27%,0.57 nM,11 nM
"Cn1c(C(C)(C)C)c/c(=N\C(=O)c2cc(C(F)(F)F)ccc2OC[C@@H]2CCCN2)n1C[C@H]1CCCO1 [Example 62, N-{(3E)-5-tert-butyl-1-methyl-2-[(2R)-tetrahydrofuran-2-ylmethyl]-1,2-dihydro-3 H-pyrazol-3-ylidene}-2-[(2S)-pyrrolidin-2-ylmethoxy]-5-(trifluoromethyl)benzamide]",> 27000 nM,82 nM,–,–,–,0.28 nM,21 nM
"Cn1c(C(C)(C)C)c/c(=N\C(=O)c2cc(C(F)(F)F)ccc2OC[C@@H]2CCN2S(C)(=O)=O)n1CC1CC1 [Example 63, N-[(3E)-5-tert-butyl-2-(cyclopropylmethyl)-1-methyl-1,2-dihydro-3H-pyrazol-3-ylidene]-2-{[(2S)-1-(methylsulfonyl)azetidin-2-yl]methoxy}-5-(trifluoromethyl)benzamide]",> 27000 nM,301 nM,–,–,–,2.5 nM,139 nM
"CN1CC[C@H]1COc1ccc(C(F)(F)F)cc1C(=O)/N=c1\oc(C(C)(C)C)cn1C[C@H]1CCCO1 [Example 74, N-[(2Z)-5-tert-butyl-3-[(2R)-tetrahydrofuran-2-ylmethyl]-1,3-oxazol-2(3 H)-ylidene]-2-{[(2S)-1-methylazetidin-2-yl]methoxy}-5-(trifluoromethyl)benzamide]",3350 nM,188 nM,–,–,–,0.42 nM,96 nM
CN1CCC[C@H]1COc1ccc(C(F)(F)F)cc1C(=O)/N=c1\oc(C(C)(C)C)cn1CC1CCC1 [Example 75],1360 nM,42 nM,–,–,–,0.19 nM,44 nM
"CC(C)(C)c1cn(C[C@H]2CCCO2)/c(=N/C(=O)c2cc(C(F)(F)F)ccc2OCCN2CCCC2)o1 [Example 77, N-[(2Z)-5-tert-butyl-3-[(2R)-tetrahydrofuran-2-ylmethyl]-1,3-oxazol-2(3 H)-ylidene]-2-(2-pyrrolidin-1-ylethoxy)-5-(trifluoromethyl)benzamide]",2560 nM,96 nM,–,–,–,0.1 nM,73 nM
"CC(=O)NCCOc1ccc(C(F)(F)F)cc1C(=O)/N=c1\cc(C(C)(C)C)n(C)n1C[C@H]1CCCO1 [Example 78, 2-[2-(acetylamino)ethoxy]-N-{(3E)-5-tert-butyl-1-methyl-2-[(2R)-tetrahydrofuran-2-ylmethyl]-1,2-dihydro-3H-pyrazol-3-ylidene}-5-(trifluoromethyl)benzamide]",8880 nM,15 nM,–,–,–,1.9 nM,18 nM
"Cn1c(C(C)(C)C)c/c(=N\C(=O)c2cc(C(F)(F)F)ccc2OC[C@@H]2CCCCN2)n1C[C@H]1CCCO1 [Example 88, N-{(3E)-5-tert-butyl-1-methyl-2-[(2R)-tetrahydrofuran-2-ylmethyl]-1,2-dihydro-3 H-pyrazol-3-ylidene}-2-[(2S)-piperidin-2-ylmethoxy]-5-(trifluoromethyl)benzamide]",702 nM,14 nM,–,–,–,0.45 nM,3.5 nM
